Consider five compounds from article PMC4748415, “Impact of different cell penetrating peptides on the efficacy of antisense therapeutics for targeting intracellular pathogens” (Scientific Reports, 2016).

For orientation: MIC50 means an inhibitory concentration at the 50% level, which refers to growth in some studies and to a panel of isolates in others. For orientation: MIC means the smallest concentration in the dilution series that meets the test's criterion for growth inhibition. A lower MIC goes with a more susceptible organism.

“And” between values parts separate entries of the source, which are not always exact repeats. Equal entries are not always repeated. “Also recorded” adds a separate entry of the source. Where two headings read alike, the source gives them in different places. Marks after values point to notes of the source that are not given here. Some results are limits rather than exact numbers.

For data set [1], the system named is mitochondrial biogenesis in J774A.1 cells. Briefly: Mitobiogenesis assay (In-Cell ELISA, COX-I/SDH-A). To be noted: three days, tested at 0.1, 1, 10 and 20 μM, COX-I/SDH-A ratio. (In an ELISA, binding on a coated surface is turned into a signal by an enzyme label.)
In the next data set the test system is hly. In words: Real-Time qRT-PCR gene expression, hly. Format: cell-based, L. monocytogenes F4244. To be noted: 2 μM PTAT, 3.5 hours, 37 °C.
Data set [2] relates to L. monocytogenes F4244. Briefly: Time kill assay. To be noted: 12 hours; for time to complete eradication of Listeria: 32 μM PNA, 37 °C, samples every 2 hours, ~10^5 CFU/ml; for bactericidal or bacteriostatic activity: L. monocytogenes, time kill at 32 μM. Format: cell-based, Listeria monocytogenes. The protocol: L. monocytogenes F4244 in logarithmic growth phase was diluted to ~10^5 CFU/ml and incubated with 32 μM of the five PNAs (in triplicates) at 37 °C for 12 hours. Samples were collected every two hours, serially diluted, and plated onto TSA plates. Plates were then incubated wat 37 °C for 24 hours before viable CFUs were determined.
Samples were collected every 20 minutes and processed as above.

The test system of the next data set is rpoA. To be noted: 3.5 hours, 37 °C.
Data set [3] has as its system clinical isolates of L. monocytogenes. Type of data set: cell-based, Listeria monocytogenes. To be noted: for MIC50: concentration required to inhibit 50% of L. monocytogenes isolates (six isolates); for MIC: broth microdilution in low binding tubes, triplicates, 16 hour incubation. The protocol: (§1) The MICs of conjugated PNAs, free PNA, CPPs and untreated control against L. monocytogenes were determined using the broth microdilution method according to the Clinical and Laboratory Standards Institute (CLSI) guidelines with the following modifications. Briefly, low binding clear microcentrifuge tubes (USA scientific, Inc. Ocala, FL) were used in triplicates for each reaction instead of traditional 96-well plates. […] After a 16 hour incubation period (of test agent with bacteria), the number of viable bacteria was enumerated by serial dilution and counting on TSA plates. The MICs were repeated at least twice.

The next data set has as its system plcA. Briefly: Real-Time qRT-PCR gene expression, plcA. To be noted: 2 μM PTAT, 3.5 hours, 37 °C. Format: cell-based, L. monocytogenes F4244. Background: Quantitative PCR measures a nucleic acid by following its amplification.
The subject of data set [4] is L. monocytogenes F4244 inside infected J774A.1 cells. Type of data set: cell-based. To be noted: 4 hours; for Log CFU/ml: intracellular F4244 in J774A.1; for Log CFU reduction: intracellular F4244 in J774A.1, versus control.
The next data set deals with plcB. Briefly: Real-Time qRT-PCR gene expression, plcB. To be noted: 3.5 hours, 37 °C. Type of data set: cell-based, L. monocytogenes F4244.
Data set [5] relates to L. monocytogenes F4244. In words: Time kill assay. As to conditions: 8 μM PNA, 37 °C, samples every 20 minutes, inoculum 2.4 × 10^5 CFU/ml. Type of data set: cell-based, Listeria monocytogenes.
The subject of data set [6] is L. monocytogenes F4244. Briefly: Concentration-dependent bacterial log reduction in pure culture. Type of data set: cell-based, Listeria monocytogenes. As to conditions: for Log CFU/ml: pure culture F4244, 16 hour incubation; for Log CFU reduction: relative to control, pure culture F4244. The protocol: as §1
Data set [7] deals with L. monocytogenes J0161 in infected C. elegans. In words: C. elegans infection model. To be noted: 18 hours treatment; for Log CFUs/worm: 10 worms in triplicates; for Log CFUs reduction: versus water.
Experimental: To test the efficacy of PNA in vivo we used Listeria-infected C. elegans. The temperature-sensitive sterile mutant strain C. elegans AU37 [sek-1(km4); glp-4(bn2) I] was used for this study. This strain is sterile at room temperature and can lay eggs only at 15 °C. Furthermore, mutation in the sek-1 gene of the p38 mitogen-activated protein kinase pathway (p38 MAPK pathway), makes this particular C. elegans strain more susceptible to Listeria infection[49][56]. Initially, the pathogenicity of three strains of Listeria (F4244, J0161 and ATCC19111) was tested in C. elegans as described before[24] to determine the most virulent strain to use for this study. […] Briefly, adult worms were grown for 5 days, at 15 °C (temperature that permits worms to lay eggs) on NGM agar plates seeded with a lawn of E. coli OP50. The eggs were harvested by bleaching[57] and maintained for 24 hours at room temperature with gentle agitation for hatching. Hatched larvae were transferred to a new NGM plate seeded with E. coli OP50 and were kept at room temperature for five days until worms reached the adult stage of growth. Adult worms were collected and washed three times with M9 media in a 1:10 ratio to remove E. coli before transfer to LB agar plates seeded with a lawn of L. monocytogenes J0161 for infection. After eight hours of infection, worms were collected and washed with M9 buffer five times before incubation with PNAs. Worms were transferred to low-binding microcentrifuge tubes (10 worms per tube). […] After treatment for 18 hours, worms were washed five times with M9 buffer. […] Samples were serially diluted and plated onto TSA plates containing 5 μg/ml nalidixic acid to select for Listeria.
Data set [8] relates to cytoplasmic membrane of L. monocytogenes F4244. In words: Calcein leakage assay. Format: cell-based, Listeria monocytogenes. To be noted: 30 min exposure; PRXR 8 × MIC (8 μM), nisin 5 × MIC (10 μg/ml); fluorescence, n = 3. The protocol:
To investigate the effect of PNA on the integrity of the Listeria cell membrane, the leakage of the preloaded fluorescent dye, calcein, was monitored and quantified as described before with a few modifications. Briefly, 20 ml of logarithmic growth phase (OD600 = 1.0, ~10^9 CFU/ml) L. monocytogenes F4244 was centrifuged and bacteria were resuspended in 9 ml of sterile PBS plus 1 ml of BHI. 3 μM of calcein AM dye was added to the bacterial suspension prior to covering the suspension with aluminum foil and incubating for one hour at 37 °C. After 10 minutes centrifugation at 3,000 × g, the supernatant was discarded. The calcein-loaded bacterial cells were resuspended in 30 ml of sterile PBS and 100 μL calcein-loaded bacteria were distributed in a 96-well microtiter plate (in triplicate). PRXR was added in a concentration equal to 8 × MIC (8 μM). Nisin 5 × MIC (10 μg/ml) and sterile water were used as positive and negative controls, respectively. Intensity of fluorescence (calcein leakage) was detected every 5 minutes for 30 minutes using a fluorescence plate reader (FLx800 model BioTek® Instruments, Inc. Winooski, Vermont) with the excitation and emission filters adjusted to 485 nm and 520 nm, respectively.

As to `CC(=O)NC[C@H]1CN(c2ccc(N3CCOCC3)c(F)c2)C(=O)O1` [Linezolid, linezolid], the “inhibition of mitochondrial protein synthesis (mitobiogenesis)” value (“inhibition” below) in [1] was 65%.

Take GRKKKRRQRRRYK-O-cgatcattcaaa-NH2 [PTAT]: in the data set with hly, the “downregulation of hly gene” value is “more than 50%”. Besides, the “time to complete eradication of Listeria” value with L. monocytogenes F4244 [2] was not above 2 h. The “bactericidal or bacteriostatic activity” value in the data set with L. monocytogenes F4244 [2] was “bactericidal activity”. The “percentage of gene expression of rpoA” value with rpoA (1 μM PTAT) is “more than 50%”; in the data set on rpoA (4 μM PTAT), “less than 5%”. In addition, in the data set with rpoA (1 μM PTAT), the “reduction in rpoA gene expression” value is 50% and 43.7%. In addition, in data set [3], the MIC50 is 2 µM. For the same compound, the minimum inhibitory concentration (MIC) in data set [3] (strain ATCC 13932) amounted to 4 µM; in data set [3] (strain ATCC 19111), 4 µM; in data set [3] (strain ATCC 19112), 2 µM; in data set [3] (strain ATCC 19114) it was 0.5 µM; in [3] (strain F4244, no turbidity), 2 µM; in data set [3] (strain J0161) it was 4 µM. For the same compound, the “decrease of plcA gene expression” value in the data set on plcA is on record as “more than 70%”. Moreover, the “Log CFU/ml” value in [4] (2 μM) is reported as 5.95 ± 0.02 Log CFU/ml; in [4] (4 μM), 5.19 ± 0.33 Log CFU/ml; in data set [4] (8 μM), 4.22 ± 0.11 Log CFU/ml; in the data set with L. monocytogenes F4244 [6] (1 µM PNA), 8.28±0.37 Log CFU/ml; in the data set on L. monocytogenes F4244 [6] (2 µM PNA) it was 5.94±0.42 Log CFU/ml; in the data set on L. monocytogenes F4244 [6] (4 µM PNA), “Cleared”. The “Log CFU/ml” value in the data set with L. monocytogenes F4244 [6] (8 µM PNA), in the data set on L. monocytogenes F4244 [6] (16 µM PNA) and with L. monocytogenes F4244 [6] (32 µM PNA) was “Cleared” throughout. Also, the “Log CFU reduction” value is listed as 0.78 Log CFU in data set [4] (2 μM); 1.54* Log CFU in data set [4] (4 μM); 2.51* Log CFU in [4] (8 μM); 1.1 Log CFU in the data set with L. monocytogenes F4244 [6] (1 µM PNA); 3.45 Log CFU in the data set with L. monocytogenes F4244 [6] (2 µM PNA); 9.39 Log CFU with L. monocytogenes F4244 [6] (4 µM PNA). Besides, the “Log CFU reduction” value with L. monocytogenes F4244 [6] (8 µM PNA), in the data set on L. monocytogenes F4244 [6] (16 µM PNA) and in the data set on L. monocytogenes F4244 [6] (32 µM PNA) was 9.39 Log CFU throughout. The “reduction in plcB gene expression” value in the data set with plcB (1 μM PTAT) is reported as 55.9%. For the same compound, the “decrease of plcB gene expression” value in the data set on plcB (2 μM PTAT) is on record as “more than 70%”. Further, the “inhibition” value in [1] is recorded as “does not interfere with the mitochondrial protein synthesis process”. Further, in the data set on L. monocytogenes F4244 [5], the “time to complete elimination of starting inoculum” value is not above 20 min. Moreover, the “Log CFUs/worm” value turned out to be 3.04±0.36 Log CFUs/worm in [7] (16 µM) and 1.7±0.6 Log CFUs/worm in data set [7] (32 µM). The “Log CFUs reduction” value in data set [7] (16 µM) came out at 1.11 Log CFUs; in data set [7] (32 µM), 2.67 Log CFUs.

For `CC1(C)S[C@@H]2[C@H](NC(=O)[C@H](N)c3ccccc3)C(=O)N2[C@H]1C(=O)O` [ampicillin], in data set [1], the “inhibition” value is listed as “does not significantly inhibit mitobiogenesis”.

As for “RFRRFRRFRRFRXB-O-cgatcattcaaa-NH2 [PRFR]”, in the data set with L. monocytogenes F4244 [2], the “time to complete eradication of Listeria” value is not above 2 h. Further, the “bactericidal or bacteriostatic activity” value in the data set with L. monocytogenes F4244 [2] is given as “bactericidal activity”. For the same compound, the MIC50 in data set [3] was found to be 4 µM. In addition, the MIC in [3] (strain ATCC 13932) was 4 µM; in [3] (strain ATCC 19111), 8 µM; in [3] (strain ATCC 19112) it was 4 µM; in data set [3] (strain ATCC 19114), 1 µM; in data set [3] (strain F4244, no turbidity), 2 µM; in [3] (strain J0161) it was 16 µM. The “Log CFU/ml” value in data set [4] (2 μM) is given as 5.89 ± 0.65 Log CFU/ml; in [4] (4 μM), 5.10 ± 0.28 Log CFU/ml; in data set [4] (8 μM) it was 4.29 ± 0.04 Log CFU/ml; in the data set with L. monocytogenes F4244 [6] (1 µM PNA), 9.26±0.09 Log CFU/ml; in the data set on L. monocytogenes F4244 [6] (2 µM PNA), 7.48±0.69 Log CFU/ml; in the data set on L. monocytogenes F4244 [6] (4 µM PNA), 6.10±0.63 Log CFU/ml. The “Log CFU/ml” value with L. monocytogenes F4244 [6] (8 µM PNA) is “bacterial clearance; also recorded: Cleared”; with L. monocytogenes F4244 [6] (16 µM PNA), “Cleared”; in the data set with L. monocytogenes F4244 [6] (32 µM PNA), “Cleared”. Moreover, the “Log CFU reduction” value in data set [4] (2 μM) is reported as 0.84 Log CFU; in [4] (4 μM), 1.63* Log CFU; in data set [4] (8 μM), 2.43* Log CFU; in the data set on L. monocytogenes F4244 [6] (1 µM PNA), 0.13 Log CFU; with L. monocytogenes F4244 [6] (2 µM PNA), 1.91 Log CFU; in the data set with L. monocytogenes F4244 [6] (4 µM PNA), 3.29 Log CFU. Moreover, the “Log CFU reduction” value with L. monocytogenes F4244 [6] (8 µM PNA), in the data set with L. monocytogenes F4244 [6] (16 µM PNA) and in the data set with L. monocytogenes F4244 [6] (32 µM PNA) was 9.39 Log CFU throughout. Moreover, the “time to complete elimination of starting inoculum” value in the data set with L. monocytogenes F4244 [5] is not above 20 min. Also, the “Log CFUs/worm” value in [7] (16 µM) was found to be 2.85±0.60 Log CFUs/worm; in [7] (32 µM), 1.86±0.26 Log CFUs/worm. The “Log CFUs reduction” value worked out at 1.3 Log CFUs in data set [7] (16 µM) and 2.52 Log CFUs in data set [7] (32 µM).

In the case of nisin [reference compound], the calcein leakage result in [8] is “more than 72%”.
